The target of one experiment is T1, PDE10 (UniProt Q8CA95).
T1 sequence (Q8CA95 1-790): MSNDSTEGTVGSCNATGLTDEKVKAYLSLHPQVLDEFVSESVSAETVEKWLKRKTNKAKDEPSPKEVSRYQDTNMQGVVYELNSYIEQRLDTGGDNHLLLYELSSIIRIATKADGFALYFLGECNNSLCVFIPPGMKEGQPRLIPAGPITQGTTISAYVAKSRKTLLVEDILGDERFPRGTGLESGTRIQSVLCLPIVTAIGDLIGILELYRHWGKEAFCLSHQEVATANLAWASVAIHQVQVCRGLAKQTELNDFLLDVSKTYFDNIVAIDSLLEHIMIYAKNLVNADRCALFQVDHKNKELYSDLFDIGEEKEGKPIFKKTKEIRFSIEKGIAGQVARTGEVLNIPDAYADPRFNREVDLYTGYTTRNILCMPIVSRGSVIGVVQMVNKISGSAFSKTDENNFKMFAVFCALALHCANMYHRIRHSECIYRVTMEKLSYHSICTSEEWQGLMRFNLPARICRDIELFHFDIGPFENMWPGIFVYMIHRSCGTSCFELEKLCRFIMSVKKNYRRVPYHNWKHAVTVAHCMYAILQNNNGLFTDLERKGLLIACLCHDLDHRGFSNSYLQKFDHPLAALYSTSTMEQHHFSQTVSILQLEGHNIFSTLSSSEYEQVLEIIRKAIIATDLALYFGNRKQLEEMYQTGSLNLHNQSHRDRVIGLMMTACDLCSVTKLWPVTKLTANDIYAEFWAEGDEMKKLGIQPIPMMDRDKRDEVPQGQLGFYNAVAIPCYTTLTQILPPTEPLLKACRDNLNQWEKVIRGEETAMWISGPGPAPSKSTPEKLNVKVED
Kind of experiment: PDE10 enzyme inhibition, IMAP TR-FRET assay (Example A: MPDE10A7 Enzyme Activity and Inhibition). The format is biochemical. As to conditions: Table 1A, Examples 11-56; read-out: PDE10 IC50. The procedure:
MPDE10A7 Enzyme Activity and Inhibition Enzyme Activity. An IMAP TR-FRET assay was used to analyze the enzyme activity (Molecular Devices Corp., Sunnyvale Calif.). 5 μL of serial diluted PDE10A (BPS Bioscience, San Diego, Calif.) or tissue homogenate was incubated with equal volumes of diluted fluorescein labeled cAMP or cGMP for 60 min in 384-well polystyrene assay plates (Corning, Corning, N.Y.) at room temperature. After incubation, the reaction was stopped by adding 60 μL of diluted binding reagents and was incubated for 3 hours to overnight at room temperature. The plates were read on an Envision (Perkin Elmer, Waltham, Mass.) for time resolved fluorescence resonance energy transfer. The data were analyzed with GraphPad Prism (La Jolla, Calif.). Enzyme Inhibition. To check the inhibition profile, 5 μL of serial diluted compounds were incubated with 5 μL of diluted PDE10 enzyme (BPS Bioscience, San Diego, Calif.) or tissue homogenate in a 384-well polystyrene assay plate (Corning, Corning, N.Y.) for 30 min at room temperature. After incubation, 10 μL of diluted fluorescein labeled cAMP or cGMP substrate were added and incubated for 60 min at room temperature. The reaction was stopped by adding 60 μL of diluted binding reagents and plates were read on an Envision (Perkin Elmer, Waltham, Mass.) for time resolved fluorescence resonance energy transfer. The data were analyzed with GraphPad Prism (La Jolla, Calif.).
On to `O=C(c1cccnc1N1CC(c2nc3cc(Cl)ccc3[nH]2)C1)N1CCC1` [Example 16, Azetidin-1-yl-{2-[3-(5-chloro-1H-benzoimidazol-2-yl)-azetidin-1-yl]-pyridin-3-yl}-methanone], for which the IC50 worked out at 1180 nM.
`Clc1ccc2[nH]c(C3CN(c4nccnc4Cl)C3)nc2c1` [Example 53, 5-chloro-2-(1-(3-chloropyrazin-2-yl)azetidin-3-yl)-1H-benzo[d]imidazole]: the IC50 amounted to 1160 nM.
For `O=C(NC[C@H]1CCCO1)c1nccnc1N1CC(c2nc3cc(Cl)ccc3[nH]2)C1` [Example 37, 3-[3-(5-chloro-1H-benzoimidazol-2-yl)-azetidin-1-yl]-pyrazine-2-carboxylic acid (tetrahydro-furan-2-ylmethyl)-amide], the IC50 was 2530 nM.
Same read-out and setting: with `CC(C)CNC(=O)c1cccnc1N1CC(c2nc3cc(Cl)ccc3[nH]2)C1` [Example 22, 2-[3-(5-chloro-1H-benzoimidazol-2-yl)-azetidin-1-yl]-N-isobutyl-nicotinamide] the figure was 2230 nM; with `N#Cc1ccc2[nH]c(C3CN(c4nccnc4-c4ccccc4)C3)nc2c1` [Example 14, 2-[1-(3-phenyl-pyrazin-2-yl)-azetidin-3-yl]-1H-benzoimidazole-5-carbonitrile], 161 nM.
With `COc1ccc(-c2nccnc2N2CC(c3nc4cc(Cl)ccc4[nH]3)C2)cc1` [Example 29, 5-chloro-2-{1-[3-(4-methoxy-phenyl)-pyrazin-2-yl]-azetidin-3-yl}-1H-benzoimidazole], the IC50 was 110 nM.
Consider `Cc1ccc2[nH]c(C3CN(c4nccnc4Cl)C3)nc2c1` [Example 48, 2-(1-(3-chloropyrazin-2-yl)azetidin-3-yl)-5-methyl-1H-benzo[d]imidazole], for which the IC50 was 456 nM.
On to `Clc1ccc2[nH]c(C3CN(c4ncccc4Br)C3)nc2c1` [Example 52, 2-(1-(3-bromopyridin-2-yl)azetidin-3-yl)-5-chloro-1H-benzo[d]imidazole], for which the IC50 was determined as 1820 nM.
Consider `Clc1ccc2[nH]c(C3CN(c4nccnc4Nc4ccccc4)C3)nc2c1` [Example 40, 3-(3-(5-chloro-1H-benzo[d]imidazol-2-yl)azetidin-1-yl)-N-phenylpyrazin-2-amine], for which the IC50 was found to be 630 nM.
For `Cc1ccc2[nH]c(C3CN(c4nccnc4N4CCOCC4)C3)nc2c1` [Example 46, 4-(3-(3-(5-methyl-1H-benzo[d]imidazol-2-yl)azetidin-1-yl)pyrazin-2-yl)morpholine], the IC50 was determined as 600 nM.
On to `O=C(c1cccnc1N1CC(c2nc3cc(Cl)ccc3[nH]2)C1)N1CCOCC1` [Example 17, {2-[3-(5-chloro-1H-benzoimidazol-2-yl)-azetidin-1-yl]-pyridin-3-yl}-morpholin-4-yl-methanone], for which the IC50 worked out at 32900 nM.
In the case of `O=C(NCC1CCOCC1)c1cccnc1N1CC(c2nc3cc(Cl)ccc3[nH]2)C1` [Example 23, 2-[3-(5-chloro-1H-benzoimidazol-2-yl)-azetidin-1-yl]-N-(tetrahydro-pyran-4-ylmethyl)-nicotinamide], the IC50 worked out at 37600 nM.
Regarding `Clc1ccc2[nH]c(C3CN(c4nccnc4Oc4ccccc4)C3)nc2c1` [Example 42, 5-chloro-2-(1-(3-phenoxypyrazin-2-yl)azetidin-3-yl)-1H-benzo[d]imidazole], the IC50 amounted to 80.9 nM.
In the case of `Clc1ccc2[nH]c(C3CN(c4nccnc4-c4ccncc4)C3)nc2c1` [Example 34, 5-chloro-2-[1-(3-pyridin-4-yl-pyrazin-2-yl)-azetidin-3-yl]-1H-benzoimidazole], the IC50 was determined as 134 nM.
Consider `CN(C)C(=O)c1nccnc1N1CC(c2nc3cc(Cl)ccc3[nH]2)C1` [Example 35, 3-[3-(5-chloro-1H-benzoimidazol-2-yl)-azetidin-1-yl]-pyrazine-2-carboxylic acid dimethylamide], for which the IC50 worked out at 10000 nM.
Still for that read-out and setting: with `CN1CCN(c2nccnc2N2CC(c3nc4cc(Cl)ccc4[nH]3)C2)CC1` [Example 43, 5-chloro-2-(1-(3-(4-methylpiperazin-1-yl)pyrazin-2-yl)azetidin-3-yl)-1H-benzo[d]imidazole] the figure was 305 nM.
As for `O=C(NCCc1ccccc1)c1cccnc1N1CC(c2nc3cc(Cl)ccc3[nH]2)C1` [Example 20, 2-[3-(5-chloro-1H-benzoimidazol-2-yl)-azetidin-1-yl]-N-phenethyl-nicotinamide], the IC50 came out at 1680 nM.
On to `Clc1ccc2[nH]c(C3CN(c4ncccc4Cl)C3)nc2c1` [Example 54, 5-chloro-2-(1-(3-chloropyridin-2-yl)azetidin-3-yl)-1H-benzo[d]imidazole], for which the IC50 was determined as 7.81 nM.
`Cc1ccccc1-c1nccnc1N1CC(c2nc3cc(Cl)ccc3[nH]2)C1` [Example 24, 5-chloro-2-[1-(3-o-tolyl-pyrazin-2-yl)-azetidin-3-yl]-1H-benzoimidazole]: the IC50 was 80.6 nM.
Take `Cc1ccc(-c2nccnc2N2CC(c3nc4cc(Cl)ccc4[nH]3)C2)cc1` [Example 26, 5-chloro-2-[1-(3-p-tolyl-pyrazin-2-yl)-azetidin-3-yl]-1H-benzoimidazole]: the IC50 amounted to 134 nM.
On the same count and under the same terms, with `N#Cc1ccc2[nH]c(C3CCN(c4ncccc4Cl)C3)nc2c1` (stereo not drawn) [Example 11, 2-[1-(3-chloro-pyridin-2-yl)-pyrrolidin-3-yl]-1H-benzoimidazole-5-carbonitrile] the figure was 310 nM.
Turning to `Clc1ccc2[nH]c(C3CN(c4nccnc4N4CCCCC4)C3)nc2c1` [Example 44, 5-chloro-2-(1-(3-(piperidin-1-yl)pyrazin-2-yl)azetidin-3-yl)-1H-benzo[d]imidazole], the IC50 came out at 920 nM.
For `COc1ccccc1-c1nccnc1N1CC(c2nc3cc(Cl)ccc3[nH]2)C1` [Example 27, 5-chloro-2-{1-[3-(2-methoxy-phenyl)-pyrazin-2-yl]-azetidin-3-yl}-1H-benzoimidazole], the IC50 is 4330 nM.

The experiment is the same for the next values; noted with them: Table 2A, Examples 61-64; read-out: IC50.
As for `CC1CCN(c2nccnc2N2CC(c3ccc4ccccc4n3)C2)CC1` [Example 61, 2-{1-[3-(4-Methyl-piperidin-1-yl)-pyrazin-2-yl]-azetidin-3-yl}-quinoline], the IC50 came to 3120 nM.
Take `COc1cccc(-c2nccnc2N2CC(c3ccc4ccccc4n3)C2)c1` [Example 64, 2-{1-[3-(3-Methoxy-phenyl)-pyrazin-2-yl]-azetidin-3-yl}-quinoline]: the IC50 is 17.5 nM.
As to `CC1CCN(c2nccnc2N2CC(c3ccc4ccccc4n3)C2)C1` (stereo not drawn) [Example 63, 2-{1-[3-(3-Methyl-pyrrolidin-1-yl)-pyrazin-2-yl]-azetidin-3-yl}-quinoline], the IC50 stood at 641 nM.

Staying with this experiment, now noted: read-out: IC50.
`Clc1ccc2[nH]c(C3CN(c4nccnc4C4CCOCC4)C3)nc2c1` [Example 8, 5-CHLORO-2-(1-(3-(TETRAHYDRO-2H-PYRAN-4-YL)PYRAZIN-2-YL)AZETIDIN-3-YL)-1H-BENZO[D]IMIDAZOLE]: the IC50 amounted to 1160 nM.
`Cc1ccc2[nH]c(C3CN(c4c(Cl)cncc4Cl)C3)nc2c1` [Example 2A, 2-[1-(3,5-DICHLORO-PYRIDIN-4-YL)-AZETIDIN-3-YL]-5-METHYL-1H-BENZOIMIDAZOLE]: the concentration for half-maximal inhibition (IC50) was determined as 210 nM.
In the case of `Clc1ccc2[nH]c(C3CN(c4cc(OC5CCOCC5)ccn4)C3)nc2c1` [Example 5, 5-CHLORO-2-(1-(4-(TETRAHYDRO-2H-PYRAN-4-YLOXY)PYRIDIN-2-YL)AZETIDIN-3-YL)-1H-BENZO[D]IMIDAZOLE], the IC50 amounted to 1090 nM.
As to `Clc1ccc2[nH]c(C3CN(c4cc(C5CCOCC5)ncn4)C3)nc2c1` [Example 6, 5-CHLORO-2-(1-(6-(TETRAHYDRO-2H-PYRAN-4-YL)PYRIMIDIN-4-YL)AZETIDIN-3-YL)-1H-BENZO[D]IMIDAZOLE], the IC50 stood at 1280 nM.
In the case of `Clc1ccc2[nH]c(C3CN(c4nccnc4OC4CCOCC4)C3)nc2c1` [Example 10, 5-CHLORO-2-(1-(3-(TETRAHYDRO-2H-PYRAN-4-YLOXY)PYRAZIN-2-YL)AZETIDIN-3-YL)-1H-BENZO[D]IMIDAZOLE], the IC50 was determined as 900 nM.
In the case of `Cc1cccc(-c2nccnc2N2CC(c3ccc4ccccc4n3)C2)c1` [Example 58, 2-[1-(3-M-TOLYL-PYRAZIN-2-YL)-AZETIDIN-3-YL]-QUINOLINE], the IC50 is 7.61 nM.
`c1ccc2nc(C3CN(c4nccnc4N4CCCCC4)C3)ccc2c1` [Example 57]: the IC50 came out at 689 nM.

(Values after US8946230B2, “Aryl- and heteroaryl- nitrogen-heterocyclic compounds as PDE10 inhibitors” (Amgen Inc., priority 2010, dated 2015).)
